Experimental data published in patent US20250223297A1, “NOVEL RAPAMYCIN DERIVATIVES” (Novartis AG, priority 2017, published 2025).

How the values were obtained:
[1] = tested on: mTORC1 signaling (pS6 Ser240/244) in MEF TSC1−/− cells; assay: MEF TSC1-/- cell based assay for rapalog potency (pS6); parameters: species or system mouse; details: 2 h treatment, average from multiple assays
Source text: Potency of mTOR inhibitors may also be determined using a MEF TSC1−/− cell-based assay. MEF TSC1−/− cells are Mouse Embryonic Fibroblasts deficient in the Tuberous sclerosis protein, TSC1, which negatively regulates mTORC1 signaling. Thus, the deficiency of TSC1 induces constitutive mTORC1 activation, resulting in phosphorylation (activation) of the downstream proteins in the mTORC1 signaling pathways. This cell-based assay is used to measure inhibition (de-phosphorylation) of the mTORC1 signaling components S6 and 4EBP1, by rapalogs or other mTOR inhibitors.
The assay is typically carried out as follows: MEF TSC1−/− cells are plated on Poly-D-lysine coated 384 well Griener clear bottom plates and incubated overnight at 37° C., 5% CO2. […] Cells are fixed with 4% paraformaldehyde for 30 min and washed 5 times with TBS-EDTA followed by immuno-staining with florescent tag labeled antibodies for pS6 and p4EBP1. Nuclei are visualized with Hoechst staining. Cells are imaged using respective florescence channels and the potency of mTOR inhibitors is defined by pS6 IC50 (nM).
Cell-based assay for rapalog potency determination. Rapalog potency was determined using MEF TSC1−/− cell based assay. MEF TSC1−/− cells are Mouse Embryonic Fibroblasts deficient in Tuberous sclerosis protein-TSC1, which negatively regulates mTORC1 signaling and thus display constitutive mTORC1 activation, resulting in phosphorylation (activation) of downstream molecules. This cell-based assay is used to measure inhibition (de-phosphorylation) of S6 and 4EBP1 by rapalogs or other mTOR inhibitors.
MEF TSC1−/− cells were plated on Poly-D-lysine coated 384 well Griener clear bottom plates and incubated overnight at 37° C., 5% CO2. […] Nuclei were visualized with Hoechst (ThermoFisher Scientific #H3570) staining. Cells were imaged (InCell 600) using respective fluorescence channels and the potency of mTOR inhibitors was defined by pS6 IC50 (nM).
In vitro potency of mTOR inhibitors was defined by pS6 IC50 (nM) in MEF TSC1−/− cells.
IC50 values are calculated as the average from multiple assays.

[2] = target: FKBP12 (Homo sapiens (Human), UniProt P62942); assay: SPR assay, binding affinity to FKBP12; details: single-cycle kinetics
Experimental: (§1) SPR Assay to Determine Binding Affinity to FK506-Binding Proteins (FKBP). N-terminal avi-his6 tagged FKBP fusions to FKBP12, FKBP51 and FKBP52 were expressed in E. coli and purified using standard chromatography. Each protein was subsequently immobilized on a streptavidin chip in a Biacore 8K SPR instrument (GE Healthcare). Using single-cycle kinetics, compound titrations were flowed at 45 uL/min over each surface using 2-minute association and 30-minute dissociation phases in a buffer containing 50 mM Tris pH 7.5/150 mM NaCl/0.01% Tween 20/1 mM DTT/2% DMSO. The data was fit using low molecular weight (LMW) single-cycle kinetics. The equilibrium dissociation constants (KD) are reported. […]

[3] = target: FKBP52 (Homo sapiens (Human), UniProt Q02790); assay: SPR assay, binding affinity to FKBP52; details: single-cycle kinetics
Experimental: as §1

[4] = tested on: S6K1 (Thr389) phosphorylation (mTORC1 activity) in FKBP12 knock-out 293T cells; assay: S6K1 (Thr389) phosphorylation ELISA in FKBP12 knock-out 293T cells; assay type: cell-based; details: 2 h, relative to DMSO
[5] = tested on: S6K1 (Thr389) phosphorylation (mTORC1 activity) in WT 293T cells; assay: S6K1 (Thr389) phosphorylation ELISA in wild-type 293T cells; assay type: cell-based; details: 2 h, relative to DMSO
Experimental: WT, FKBP12 knock-down and FKBP12 knock-out 293T cells were plated at a density of 30,000 cells per well in poly-D-Lysine coated 96-well plates (Corning, #354461) in Dulbecco's modified Eagle's medium (ThermoFisher, #11995-065) supplemented with 10% fetal bovine serum (ThermoFisher, #16140-071). Cells were incubated at 37° C., 5% CO2 for 48 hours until they reached ˜80% confluence. […] Media supplemented with blank Dimethyl sulfoxide (DMSO) was used as a control for both compounds. Phosphorylated amounts of S6K1 (Thr389) were detected by a sandwich ELISA kit (Cell signaling, #7063C) following the manufacture's protocol.
S6K1 is a downstream target of mTORC1 and phosphorylation of its rapalog-sensitive Thr389 site is used as a functional readout of mTORC1 activity. Lee, C. H., Inoki, K. and Guan, K. L. (2007). mTOR pathway as a target in […]. Annu. Rev. Pharmacol. Toxicol. 47. 443-467. […] In FKBP12 knock-out cells. […] Such specificity of Example 2 to FKBP12 may facilitate targeting cells and tissues with relatively high levels of FKBP12 expression, while avoiding (or minimizing) side effects in the tissues where FKBP12 is weakly expressed.

[6] = tested on: S6K1 (Thr389) phosphorylation (mTORC1 activity) in FKBP12 knock-down 293T cells; assay: S6K1 (Thr389) phosphorylation ELISA in FKBP12 knock-down 293T cells; assay type: cell-based; details: 2 h, relative to DMSO

FKBP52, sequence (Q02790 whole entry): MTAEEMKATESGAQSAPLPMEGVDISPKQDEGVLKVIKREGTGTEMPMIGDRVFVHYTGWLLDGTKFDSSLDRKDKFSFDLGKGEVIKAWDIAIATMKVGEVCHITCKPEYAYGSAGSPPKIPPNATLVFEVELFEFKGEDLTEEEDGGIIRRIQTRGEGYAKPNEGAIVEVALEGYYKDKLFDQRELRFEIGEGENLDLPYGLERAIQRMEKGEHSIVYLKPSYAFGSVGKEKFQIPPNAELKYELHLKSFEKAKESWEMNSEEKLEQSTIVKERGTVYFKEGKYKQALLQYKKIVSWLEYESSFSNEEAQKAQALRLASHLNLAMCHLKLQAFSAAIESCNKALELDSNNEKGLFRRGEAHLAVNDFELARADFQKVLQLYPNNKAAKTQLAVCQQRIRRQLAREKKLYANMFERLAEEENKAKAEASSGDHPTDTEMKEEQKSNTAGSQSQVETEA
FKBP12, sequence (P62942 whole entry, the tested form may be a part): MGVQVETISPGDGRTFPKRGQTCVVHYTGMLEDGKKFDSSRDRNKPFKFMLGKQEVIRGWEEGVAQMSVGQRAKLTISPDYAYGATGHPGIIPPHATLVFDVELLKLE

Structure (SMILES)	IC50 ([1]; Mus musculus, 2 h) [nM]	IC50 [1] [nM]	Kd [2] [nM]	Kd [3] [nM]	also measured
CO[C@@H]1C[C@H](C[C@@H](C)[C@@H]2CC[C@H](C)/C=C(\C)[C@@H](O)[C@@H](OC)C(=O)[C@H](C)C[C@H](C)/C=C/C=C/C=C(\C)C(N3CCN(CCO)C3=O)C[C@@H]3CC[C@@H](C)[C@@](O)(O3)C(=O)C(=O)N3CCCC[C@H]3C(=O)O2)CC[C@H]1O (single isomer, unassigned) [Example 5]	153	–	–	–	–
CO[C@@H]1C[C@H](C[C@@H](C)[C@@H]2CC[C@H](C)/C=C(\C)[C@@H](O)[C@@H](OC)C(=O)[C@H](C)C[C@H](C)/C=C/C=C/C=C(\C)C(N3CCS3(=O)=O)C[C@@H]3CC[C@@H](C)[C@@](O)(O3)C(=O)C(=O)N3CCCC[C@H]3C(=O)O2)CC[C@H]1O (single isomer, unassigned) [Example 6, C16-(1,1-dioxido-1,2-thiazetidin-2-yl)-C32-deoxo-rapamycin]	0.17	–	–	–	–
CO[C@@H]1C[C@H](C[C@@H](C)[C@@H]2CC[C@H](C)/C=C(\C)[C@@H](O)[C@@H](OC)C(=O)[C@H](C)C[C@H](C)/C=C/C=C/C=C(\C)C(N3CCS3(=O)=O)C[C@@H]3CC[C@@H](C)[C@@](O)(O3)C(=O)C(=O)N3CCCC[C@H]3C(=O)O2)CC[C@H]1O (single isomer, unassigned) [Example 7, C16-(1,1-dioxido-1,2-thiazetidin-2-yl)-C32-deoxo-rapamycin]	–	0.3	–	–	–
CO[C@@H]1C[C@H](C[C@@H](C)[C@@H]2CC[C@H](C)/C=C(\C)[C@@H](O)[C@@H](OC)C(=O)[C@H](C)C[C@H](C)/C=C/C=C/C=C(\C)C(N3CCS3(=O)=O)C[C@@H]3CC[C@@H](C)[C@@](O)(O3)C(=O)C(=O)N3CCCC[C@H]3C(=O)O2)CC[C@H]1OCCO (single isomer, unassigned) [Example 8, C16-(1,1-dioxido-1,2-thiazetidin-2-yl)-C32-deoxo-C40-(2-hydroxyethoxy)-rapamycin]	–	0.328	–	–	–
CO[C@@H]1C[C@H](C[C@@H](C)[C@@H]2CC[C@H](C)/C=C(\C)[C@@H](O)[C@@H](OC)C(=O)[C@H](C)C[C@H](C)/C=C/C=C/C=C(\C)C(N3CCS3(=O)=O)C[C@@H]3CC[C@@H](C)[C@@](O)(O3)C(=O)C(=O)N3CCCC[C@H]3C(=O)O2)CC[C@H]1OCCO (single isomer, unassigned) [Example 9, C16-(1,1-dioxido-1,2-thiazetidin-2-yl)-C32-deoxo-C40-(2-hydroxyethoxy)-rapamycin]	–	1.45	–	–	–

Continued, in another order:

IC50 ([1]; Mus musculus, 2 h) [nM]	IC50 [1] [nM]	Kd [2] [nM]	Kd [3] [nM]	Structure (SMILES)	also measured
–	–	1.6	176	CO[C@@H]1C[C@H](C[C@@H](C)[C@@H]2CC[C@H](C)/C=C(\C)[C@@H](O)[C@@H](OC)C(=O)[C@H](C)C[C@H](C)/C=C/C=C/C=C(\C)C(N3CCS3(=O)=O)C[C@@H]3CC[C@@H](C)[C@@](O)(O3)C(=O)C(=O)N3CCCC[C@H]3C(=O)O2)CC[C@H]1OP(C)(C)=O (single isomer, unassigned) [Example 10, C16-(1,1-dioxido-1,2-thiazetidin-2-yl)-C32-deoxo-C40-dimethylphosphinyl-rapamycin]	–
0.374	–	–	–	CO[C@@H]1C[C@H](C[C@@H](C)[C@@H]2CC[C@H](C)/C=C(\C)[C@@H](O)[C@@H](OC)C(=O)[C@H](C)C[C@H](C)/C=C/C=C/C=C(\C)C(N3CCS3(=O)=O)C[C@@H]3CC[C@@H](C)[C@@](O)(O3)C(=O)C(=O)N3CCCC[C@H]3C(=O)O2)CC[C@@H]1n1cnnn1 (single isomer, unassigned) [Example 12]	–
–	0.656	–	–	CO[C@@H]1C[C@H](C[C@@H](C)[C@@H]2CC[C@H](C)/C=C(\C)[C@@H](O)[C@@H](OC)C(=O)[C@H](C)C[C@H](C)/C=C/C=C/C=C(\C)C(N3CCS3(=O)=O)C[C@@H]3CC[C@@H](C)[C@@](O)(O3)C(=O)C(=O)N3CCCC[C@H]3C(=O)O2)CC[C@@H]1n1cnnn1 (single isomer, unassigned) [Example 13]	–
7.77	–	16	542	CO[C@@H]1C[C@H](C[C@@H](C)[C@@H]2CC[C@H](C)/C=C(\C)[C@@H](O)[C@@H](OC)C(=O)[C@H](C)C[C@H](C)/C=C/C=C/C=C(\C)C(N3CCCS3(=O)=O)C[C@@H]3CC[C@@H](C)[C@@](O)(O3)C(=O)C(=O)N3CCCC[C@H]3C(=O)O2)CC[C@H]1OP(C)(C)=O (single isomer, unassigned) [Example 14, C16-(1,1-dioxidoisothiazolidin-2-yl)-C32-deoxo-C40-dimethylphosphinyl-rapamycin]	–
3.2	–	–	–	CO[C@@H]1C[C@H](C[C@@H](C)[C@@H]2CC[C@H](C)/C=C(\C)[C@@H](O)[C@@H](OC)C(=O)[C@H](C)C[C@H](C)/C=C/C=C/C=C(\C)C(N3CCCS3(=O)=O)C[C@@H]3CC[C@@H](C)[C@@](O)(O3)C(=O)C(=O)N3CCCC[C@H]3C(=O)O2)CC[C@H]1OP(C)(C)=O (single isomer, unassigned) [Example 15, C16-(1,1-dioxidoisothiazolidin-2-yl)-C32-deoxo-C40-dimethylphosphinyl-rapamycin]	–
–	–	35	4070	CO[C@@H]1C[C@H](C[C@@H](C)[C@@H]2CC[C@H](C)/C=C(\C)[C@@H](O)[C@@H](OC)C(=O)[C@H](C)C[C@H](C)/C=C/C=C/C=C(\C)[C@H](N3CCCS3(=O)=O)C[C@@H]3CC[C@@H](C)[C@@](O)(O3)C(=O)C(=O)N3CCCC[C@H]3C(=O)O2)CC[C@H]1OCCO [Example 16]	–
–	–	500	1760	CO[C@H]1C[C@@H]2CC[C@@H](C)[C@@](O)(O2)C(=O)C(=O)N2CCCC[C@H]2C(=O)O[C@H]([C@H](C)C[C@@H]2CC[C@@H](OCCO)[C@H](OC)C2)CC(=O)[C@H](C)/C=C(\C)[C@@H](O)[C@@H](OC)C(=O)[C@H](C)C[C@H](C)/C=C/C=C/C=C/1C [RAD001, everolimus, reference compound]	inhibition of S6K1 (Thr389) phosphorylation [4]: > 60%; inhibition of S6K1 (Thr389) [5]: ~80%; maximum inhibition of S6K1 (Thr389) [6]: ~70%
